“Also recorded” adds a separate entry of the source. Where two headings read alike, the source gives them in different places.
Legend:
[1] = system: Sparicotyle chrysophrii adults; assay: microbe, parasite or virus in culture; conditions: for LC20 (95% CI), toxicity level for adult S. chrysophrii: 20% mortality; for LC20 (95% CI), toxicity level for adult S. chrysophrii / LC80 (95% CI), toxicity level for adult S. chrysophrii: 4 h post-exposure; for LC80 (95% CI), toxicity level for adult S. chrysophrii: 80% mortality; for LC50: Sparicotyle chrysophryii, 4 h, read-out: LC50 (95% CI), toxicity level for adult S. chrysophrii; for b (SE), slope of dose–response model / e (SE), midpoint of dose–response model: Weibull type 2, c = 0, d = 1, mortality at 4 h post-exposure
Experimental: Subsequently, the monogeneans (n = 6, in triplicate) were exposed to a range of seven concentrations tailored according to each compound’s activity observed in preliminary tests. The range for each compound was scaled down to an appropriate order of magnitude so that each compound reached 100% mortality at 4 h post-exposure (Table 1).
For the dose–response curve fitting, the drc package for R (v4.0.4) was used. An appropriate nonlinear regression model was selected between log-logistic and Weibull type models, based on the Akaike information criterion (AIC) and lack-of-fit test criteria through the use of mselect function. The best scoring model was Weibull type 2 model (asymmetrical) with lower and upper limits fixed to 0 and 1, respectively, as mortality in all assays reached 100%. […] Model parameters and estimated lethal doses (20%, 50%, and 80%) were calculated with standard errors and 95% confidence intervals, based on the delta method, respectively, and adjusted for simultaneous inference through multcomp package. Dose–response curves were visualised using ggplot2 library.

SAF-1 cells = assay: Viability of SAF-1 cell line (MTT assay); assay type: cell-based, Sparus aurata; conditions: for viability of SAF-1 cells compared to control: 0.1–10 µM, 24, 48, 72 h
Experimental: Sparus aurata fibroblast cell line SAF-1 (ECACC n°00122301) was cultured in 25 cm^2 plastic flasks (Nunc, Darmstadt, Germany) in L-15 Leibowitz medium (Sigma, Haverhill, UK) supplemented with 10% fetal bovine serum (FBS), 2 mmol/L L-glutamine, 100 iu/mL penicillin, and […] streptomycin (all reagents from Sigma-Aldrich, Saint Louis, MO, USA).
Cells were grown at 25 °C under an 85% humidity atmosphere. Cells at 80% of confluence were detached with trypsin solution (0.25% of trypsin in PBS, pH 7.2–7.4) and pelleted by centrifugation (1000 rpm, 10 min, 25 °C). The cell suspension in complete medium was dispensed in a 96-multiwell plate at a density of 8000 cells/well and incubated for 24 h before the exposure to the compounds.
Cytotoxicity assay was performed in six replicates. Stock solutions were prepared by dissolving the compounds in dimethyl sulfoxide (DMSO), and then diluting in complete medium (final concentration of DMSO 0.1%) to obtain concentration of 0.1, 1, and 10 µM of target compounds.
Cells were then incubated for 24, 48, and 72 h in three different plates at 25 °C. Control samples received the same volume of culture medium and DMSO 0.1%, although this concentration of solvent is considered non-toxic.
The toxicity of the compounds was determined using the (3-(4,5-dimethylthiazol-2-yl)-2,5-diphenyltetrazolium bromide (MTT, Sigma-Aldrich) assay, according to [62], as reported in [61]. The results were expressed as viability percentage in respect to the controls (untreated cells).
The MTT assay is based on the reduction in the yellow soluble tetrazolium salt (3-(4,5-dimethylthiazol-2-yl)-2,5-diphenyltetrazolium bromide) (MTT, Sigma-Aldrich, Saint Louis, Missouri, USA) into a blue, insoluble formazan produced by the mitochondrial succinate dehydrogenase. […] After 4 h of incubation, cells were washed again, and the formazan crystals solubilized with […] of DMSO. Plates were shaken (5 min, 100 rpm) in dark conditions and the optical densities (ODs) at 570 nm with background subtraction at 690 nm were determined in a microplate reader (Opsys MR™ Microplate Reader, USA). The percentage of viability was determined by formula:Viability (%) = (OD of the tested sample/OD of the control sample) × 100

Vibrio harveyi = assay: Bactericidal activity (MTT), Vibrio harveyi; assay type: cell-based; conditions: for inhibition at 0.1 µM / inhibition at 1 µM / inhibition at 10 µM: Vibrio harveyi, read-out: Bactericidal activity (%); for bactericidal activity against V. harveyi: synthetic compounds, at increased concentrations
Experimental: (§1) Two bacterial fish pathogens, Vibrio harveyi and V. anguillarum were used to test the bactericidal activity of the target compounds, being previously isolated and identified as described in [65]. Lab strains were maintained at −20 °C in Tryptone Soy Broth (TSB, Difco Laboratories, Inc., Detroit, MI, USA) supplemented with 1% (w/v) NaCl (TSB1) and 50% (v/v) glycerol. […] Bacteria in TSB medium were then cultured at the same temperature with continuous shaking (100 rpm) for 24 h. Exponentially grown bacteria were resuspended in sterile PBS and adjusted to the concentration of 10^8 colony forming units (cfu)/mL. Each target compound (20 μL; concentrations 0.1, 1, and 10 µM) was added (in triplicates) to the wells of a flat-bottom 96-well plate, except for the positive control that consisted of 0.5% DMSO in PBS. Aliquots of 20 μL of the previously cultured bacteria were added, and the plate was incubated for 5 h at 25 °C. […] The plate was then centrifuged (4500 rpm, 10 min) and the precipitate dissolved in 200 μL of DMSO. The solution (100 μL) from each well was transferred to another flat-bottom 96-well plate. The absorbance of the dissolved formazan was measured at 570 nm. Bactericidal activity was expressed as percentage of nonviable bacteria, calculated as the difference between absorbance of surviving bacteria compared to the absorbance of bacteria in positive controls (100%).

Vibrio anguillarum = assay: Bactericidal activity (MTT), Vibrio anguillarum; assay type: cell-based; conditions: for inhibition at 0.1 µM / inhibition at 1 µM / inhibition at 10 µM: Vibrio anguillarum, read-out: Bactericidal activity (%); for antibacterial activity against V. anguillarum: among the natural compounds; for antibacterial activity against V. anguillarum / antimicrobial activity against V. anguillarum: p < 0.05
Experimental: as §1

[2] = system: Sparicotyle chrysophrii adults; assay: microbe, parasite or virus in culture; conditions: for mortality at 1000 µM: Sparicotyle chrysophryii
Experimental: Firstly, the adult monogeneans were exposed to a range of four concentrations of tested compounds encompassing the full dose–response range; each compound stock at 10 mM was serially diluted 10 (1 mM), 10^2 (0.1 mM), 10^3 (0.01 mM), and 10^4 (1 µM) times. […] Ten monogeneans per well (in triplicate) were added to 2 mL sterile seawater (SW) in 6-well plates, checked at the stereomicroscope for visible signs of mechanical damage, and exposed to selected concentrations in the dark at room temperature (Table 1). The number of live/dead parasites was recorded under the stereomicroscope at 1, 4, 12, and 24 h post-exposure. S. chrysophrii was considered to be alive if it performed any type of movement autonomously or 5 s after gentle probing with a dissection needle. Negative controls comprised the seawater with up to 0.5% of DMSO in total volume, the latter used as a solvent for each compound.

[3] = system: wild and drug-resistant Leishmania donovani amastigotes; design: method as in PMID 28400285; conditions: cited from earlier work

COc1cc(/C=C/C(=O)CC(=O)/C=C/c2ccc(O)c(OC)c2)ccc1O [Curcumin]
LC20 (95% CI), toxicity level for adult S. chrysophrii [1]: 0.14 (0.06–0.23) mM
LC80 (95% CI), toxicity level for adult S. chrysophrii [1]: 0.36 (0.26–0.45) mM
LC50 [1]: 240 µM
b (SE), slope of dose–response model [1]: 2.14 (0.44)
e (SE), midpoint of dose–response model [1]: 0.29 (0.03)
fold less toxic for the monogenean compared to cedrol ([1]; comparison with cedrol): 2
cytotoxicity in SAF-1 cells (SAF-1 cells; 10 µM for 24 h): exerted significant cytotoxicity
potency / effect against V. harveyi as judged in the discussion (Vibrio harveyi): ineffective against V. harveyi
inhibition at 0.1 µM (Vibrio harveyi; 0.1 µM, 5 h at 25 °C): 2.1 ± 15%
inhibition at 1 µM (Vibrio harveyi; 1 µM, 5 h at 25 °C): 7.6 ± 2.1%
inhibition at 10 µM (Vibrio harveyi; 10 µM, 5 h at 25 °C): 10.4 ± 4.5%
potency / effect against V. anguillarum as judged in the discussion (Vibrio anguillarum): potent anti-Vibrio anguillarum agent
inhibition at 0.1 µM (Vibrio anguillarum; 0.1 µM, 5 h at 25 °C): 9.5 ± 7.5%
inhibition at 1 µM (Vibrio anguillarum; 1 µM, 5 h at 25 °C): 24.5 ± 14.6%
inhibition at 10 µM (Vibrio anguillarum; 10 µM, 5 h at 25 °C): 34.9 ± 1.2%
antibacterial activity against V. anguillarum (Vibrio anguillarum): strongest antibacterial activity

C[C@H]1C(=O)O[C@@H]2CCN3CC=C(COC(=O)[C@](C)(O)[C@]1(C)O)[C@H]23 [Monocrotaline]
mortality at 1000 µM ([2]; 1 h): 100%
antimicrobial activity against V. harveyi (Vibrio harveyi; 10 µM, p < 0.05): significant antimicrobial activity
inhibition at 0.1 µM (Vibrio harveyi; 5 h): -4.9 ± 24.9%
inhibition at 1 µM (Vibrio harveyi; 5 h): 18.2 ± 10.9%
inhibition at 10 µM (Vibrio harveyi; 5 h): 40.1 ± 4.1%
inhibition at 0.1 µM (Vibrio anguillarum; 5 h): -73 ± 56.1%
inhibition at 1 µM (Vibrio anguillarum; 5 h): -46.9 ± 32%
inhibition at 10 µM (Vibrio anguillarum; 5 h): 17.9 ± 0.6%

S=C=Nc1ccc(N=C=S)cc1 [Bitoscanate, reference compound]
mortality at 1000 µM ([2]; 24 h): 100%
viability of SAF-1 cells compared to control (SAF-1 cells): did not induce a significant reduction in viability
inhibition at 0.1 µM (Vibrio harveyi; 5 h): -21.6 ± 6%
inhibition at 1 µM (Vibrio harveyi; 5 h): -0.088 ± 16.3%
inhibition at 10 µM (Vibrio harveyi; 5 h): 13.1 ± 5.1%
antimicrobial activity against V. anguillarum (Vibrio anguillarum; 10 µM): best antimicrobial activity
inhibition at 0.1 µM (Vibrio anguillarum; 5 h): -10.8 ± 19.9%
inhibition at 1 µM (Vibrio anguillarum; 5 h): 19.6 ± 3.7%
inhibition at 10 µM (Vibrio anguillarum; 5 h): 30.5 ± 2%

CCCCCCc1ccc(O)cc1O [4-Hexylresorcinol, reference compound]
mortality at 1000 µM ([2]; 1 h): 100%
viability of SAF-1 cells compared to control (SAF-1 cells): did not induce a significant reduction in viability
inhibition at 0.1 µM (Vibrio harveyi; 0.1 µM, 5 h at 25 °C): 19.6 ± 31.5%
inhibition at 1 µM (Vibrio harveyi; 1 µM, 5 h at 25 °C): 34.7 ± 10.1%
inhibition at 10 µM (Vibrio harveyi; 10 µM, 5 h at 25 °C): 67.5 ± 14.1%
bactericidal activity against V. harveyi (Vibrio harveyi): significant bactericidal activity
inhibition at 0.1 µM (Vibrio anguillarum; 0.1 µM, 5 h at 25 °C): -121 ± 10.9%
inhibition at 1 µM (Vibrio anguillarum; 1 µM, 5 h at 25 °C): -76.1 ± 33.9%
inhibition at 10 µM (Vibrio anguillarum; 10 µM, 5 h at 25 °C): -55.5 ± 31.6%

CCN(CC)C(=O)c1cccc(C)c1 [N,N-diethyl-M-toluamide, reference compound]
mortality ([2]; highest concentration (1 mM), already after 1 h): 100%
inhibition (Vibrio harveyi; 0.1 µM): -0.9 ± 8.7%
inhibition (Vibrio harveyi; 1 µM): 4.5 ± 16.7%
inhibition (Vibrio harveyi; 10 µM): 13.7 ± 0.6%
bactericidal activity against V. harveyi (Vibrio harveyi): significant bactericidal activity
inhibition (Vibrio anguillarum; 0.1 µM): -61.9 ± 29%
inhibition (Vibrio anguillarum; 1 µM): -28.5 ± 24.1%
inhibition (Vibrio anguillarum; 10 µM): 9.1 ± 8.5%

C=CCSCC=C [Diallyl sulphide]
mortality at 1000 µM ([2]; 24 h): 100%
inhibition at 0.1 µM (Vibrio harveyi; 0.1 µM, 5 h at 25 °C): -36.6 ± 6.8%
inhibition at 1 µM (Vibrio harveyi; 1 µM, 5 h at 25 °C): -36.4 ± 7.9%
inhibition at 10 µM (Vibrio harveyi; 10 µM, 5 h at 25 °C): -1.6 ± 0.7%
antimicrobial activity against V. anguillarum (Vibrio anguillarum; 10 µM): best antimicrobial activity
inhibition at 0.1 µM (Vibrio anguillarum; 0.1 µM, 5 h at 25 °C): -11.3 ± 24.8%
inhibition at 1 µM (Vibrio anguillarum; 1 µM, 5 h at 25 °C): -5.8 ± 11.7%
inhibition at 10 µM (Vibrio anguillarum; 10 µM, 5 h at 25 °C): 46.8 ± 4%

O=c1ccc2ccccc2o1 [Coumarin]
mortality at 1000 µM ([2]; 24 h): 100%
inhibition at 0.1 µM (Vibrio harveyi; 0.1 µM, 5 h at 25 °C): -33.4 ± 3.9%
inhibition at 1 µM (Vibrio harveyi; 1 µM, 5 h at 25 °C): -21.2 ± 13.3%
inhibition at 10 µM (Vibrio harveyi; 10 µM, 5 h at 25 °C): -1.9 ± 7.6%
inhibition at 0.1 µM (Vibrio anguillarum; 0.1 µM, 5 h at 25 °C): 1.5 ± 8.38%
inhibition at 1 µM (Vibrio anguillarum; 1 µM, 5 h at 25 °C): 13.2 ± 13.4%
inhibition at 10 µM (Vibrio anguillarum; 10 µM, 5 h at 25 °C): 17.3 ± 5%
antibacterial activity against V. anguillarum (Vibrio anguillarum): strongest antibacterial activity

C[C@@H]1CC[C@H]2C(C)(C)[C@H]3C[C@@]12CC[C@@]3(C)O [Cedrol]
LC20 (95% CI), toxicity level for adult S. chrysophrii [1]: 0.09 (0.06–0.11) mM
LC80 (95% CI), toxicity level for adult S. chrysophrii [1]: 0.14 (0.12–0.16) mM
times the L. donovani IC50 is lower than the LC50 observed for S. chrysophrii ([1]; IC50 1.5 μM (ref 33) against own LC50): approximately 73
LC50 [1]: 110 µM
b (SE), slope of dose–response model [1]: 3.98 (0.66)
e (SE), midpoint of dose–response model [1]: 0.12 (0.01)
reduction in sea bream fibroblasts' viability (SAF-1 cells; 10 µM, 72 h of exposure): highest reduction in sea bream fibroblasts’ viability; also recorded: moderately toxic to the host cell line during long-term exposure to very high concentrations
inhibition at 0.1 µM (Vibrio harveyi; 0.1 µM, 5 h at 25 °C): -44.9 ± 7.7%
inhibition at 1 µM (Vibrio harveyi; 1 µM, 5 h at 25 °C): -23.8 ± 6.9%
inhibition at 10 µM (Vibrio harveyi; 10 µM, 5 h at 25 °C): -2.4 ± 26.9%
potency / effect against V. anguillarum as judged in the discussion (Vibrio anguillarum): effective only against V. anguillarum
inhibition at 0.1 µM (Vibrio anguillarum; 0.1 µM, 5 h at 25 °C): -6.9 ± 3%
inhibition at 1 µM (Vibrio anguillarum; 1 µM, 5 h at 25 °C): 24.1 ± 8%
inhibition at 10 µM (Vibrio anguillarum; 10 µM, 5 h at 25 °C): 30.8 ± 6.4%
antibacterial activity against V. anguillarum (Vibrio anguillarum): strongest antibacterial activity
fold increase of selectivity index (CC50/IC50) ([3]; incorporated and delivered within lipid nanocarrier, wild-type L. donovani): 2.1
IC50 ([3]; wild and drug-resistant L. donovani amastigotes infecting humans, read-out: inhibitory concentration (IC50)): 1.5 µM
